Read-outs that look alike come from different tables or passages of the source.
Columns and labels:
[1] = target: T1, CB1 receptor (Homo sapiens, UniProt P21554); assay type: cell-based; conditions: for Conclusions: Is CB1R agonist effect observed? / Experiment 1 Fold change / Experiment 2 Fold change / Experiment 3 Fold change: alone or + THCA 10 μM or + THC 10 μM
T1 construct: expressed in transfected cells

[2] = target: T1, CB1 receptor; experiment: cell-based; assay type: cell-based; conditions: for Conclusions: Is CB1R antagonist effect observed? / activity at 5 µM / Experiment 1 Fold change / Experiment 2 Fold change / Experiment 3 Fold change / activity at 10 µM / activity at 25 µM / activity at 50 µM / activity at 100 µM: alone or + THCA 10 μM, CBD 1 μM or THC 10 μM; for activity at 5 µM / activity at 10 µM / activity at 25 µM / activity at 50 µM / activity at 100 µM: CP55940-induced activity = 100%; for Experiment 1 Fold change / Experiment 2 Fold change / Experiment 3 Fold change: Table 3 data re-expressed as fold change

T1 sequence (P21554 whole entry): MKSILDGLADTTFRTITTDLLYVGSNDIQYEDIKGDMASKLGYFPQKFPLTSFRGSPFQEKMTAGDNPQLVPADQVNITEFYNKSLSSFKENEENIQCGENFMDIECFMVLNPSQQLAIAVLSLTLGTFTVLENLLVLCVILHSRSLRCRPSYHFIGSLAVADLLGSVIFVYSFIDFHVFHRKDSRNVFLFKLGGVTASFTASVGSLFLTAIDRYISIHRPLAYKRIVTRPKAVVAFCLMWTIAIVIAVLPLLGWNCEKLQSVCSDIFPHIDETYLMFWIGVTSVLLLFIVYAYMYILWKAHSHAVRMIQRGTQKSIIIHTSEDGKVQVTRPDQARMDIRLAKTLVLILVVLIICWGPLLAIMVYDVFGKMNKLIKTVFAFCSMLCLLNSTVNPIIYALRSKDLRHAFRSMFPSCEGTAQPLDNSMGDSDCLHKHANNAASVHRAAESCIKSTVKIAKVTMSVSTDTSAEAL

## CC(=O)O[C@@H]1CC[C@@]2(C)[C@@H](CC[C@]3(C)[C@@H]2C(=O)C=C2[C@@H]4[C@@H](C)[C@H](C)CC[C@]4(C)CC[C@]23C)[C@@]1(C)C(=O)O [AKBA, 3-O-acetyl-11-ketobeta-boswellic acid]
[1]; AKBA 5 μM
  Conclusions: Is CB1R agonist effect observed?: Negative (Only treatments that the mean of three consecutive independent experiments shows a positive result: CB1R activity ≥ 2.5-fold increase or ≥ 4-fold increase are considered CB1R agonists or CB1R positive allosteric modulators)
  Experiment 1 Fold change: 0.8 Fold change
  Experiment 2 Fold change: 0.8 Fold change
  Experiment 3 Fold change: 1.1 Fold change
[1]; AKBA 10 μM
  Conclusions: Is CB1R agonist effect observed?: Negative (Only treatments that the mean of three consecutive independent experiments shows a positive result: CB1R activity ≥ 2.5-fold increase or ≥ 4-fold increase are considered CB1R agonists or CB1R positive allosteric modulators)
  Experiment 1 Fold change: 1.0 Fold change
  Experiment 2 Fold change: 1.3 Fold change
  Experiment 3 Fold change: 0.9 Fold change
[1]; AKBA 25 μM
  Experiment 1 Fold change: 1.0 Fold change
  Experiment 2 Fold change: 1.1 Fold change
  Experiment 3 Fold change: 0.8 Fold change
[1]; AKBA 25 μM, cell 'Positive' wraps to 'Positive synergy'
  Conclusions: Is CB1R agonist effect observed?: Negative (Only treatments that the mean of three consecutive independent experiments shows a positive result: CB1R activity ≥ 2.5-fold increase or ≥ 4-fold increase are considered CB1R agonists or CB1R positive allosteric modulators)
[1]; AKBA 50 μM
  Experiment 1 Fold change: 1.3 Fold change
  Experiment 2 Fold change: 1.3 Fold change
  Experiment 3 Fold change: 0.7 Fold change
[1]; AKBA 50 μM, cell 'Positive' wraps to 'Positive synergy'
  Conclusions: Is CB1R agonist effect observed?: Negative (Only treatments that the mean of three consecutive independent experiments shows a positive result: CB1R activity ≥ 2.5-fold increase or ≥ 4-fold increase are considered CB1R agonists or CB1R positive allosteric modulators)
[1]; AKBA 100 μM
  Experiment 1 Fold change: 2.5 Fold change
  Experiment 2 Fold change: 1.1 Fold change
  Experiment 3 Fold change: 0.7 Fold change
[1]; AKBA 100 μM, cell 'Positive' wraps to 'Positive synergy'
  Conclusions: Is CB1R agonist effect observed?: Negative (Only treatments that the mean of three consecutive independent experiments shows a positive result: CB1R activity ≥ 2.5-fold increase or ≥ 4-fold increase are considered CB1R agonists or CB1R positive allosteric modulators)
[1]; AKBA 5-100 μM alone or + 10 μM THCA, any tested concentration, THC alone
  CB1R agonistic activity: did not show CB1R agonistic activity
[2]
  EC50: 51.7 ± 13.6 µM
  Positive allosteric CB1R effect on CP-55940 activity: strong positive allosteric CB1R effect
[2]; AKBA 5 μM, % of activity data
  Conclusions: Is CB1R antagonist effect observed?: Negative (Only treatments that the mean of three consecutive independent experiments show a positive result (CB1R activity ≤ 50%) are considered antagonists of CB1R activity)
[2]; AKBA 5 μM, read-out: Experiment 1 % of activity
  activity at 5 µM: 130%
[2]; AKBA 5 μM, read-out: Experiment 2 % of activity
  activity at 5 µM: 123%
[2]; AKBA 5 μM, read-out: Experiment 3 % of activity
  activity at 5 µM: 103%
[2]; AKBA 5 μM
  Experiment 1 Fold change: 3.2 Fold change
  Experiment 2 Fold change: 3.1 Fold change
  Experiment 3 Fold change: 2.6 Fold change
[2]; AKBA 5 μM, positive allosteric activity, fold change data
  Conclusions: Is CB1R antagonist effect observed?: Negative (Only treatments that the mean of three consecutive independent experiments show a positive result (CB1R activity ≥ 4-fold change) are considered positive CB1R allosteric agonists)
[2]; AKBA 10 μM, % of activity data
  Conclusions: Is CB1R antagonist effect observed?: Negative (Only treatments that the mean of three consecutive independent experiments show a positive result (CB1R activity ≤ 50%) are considered antagonists of CB1R activity)
[2]; AKBA 10 μM, read-out: Experiment 1 % of activity
  activity at 10 µM: 136%
[2]; AKBA 10 μM, read-out: Experiment 2 % of activity
  activity at 10 µM: 114%
[2]; AKBA 10 μM, read-out: Experiment 3 % of activity
  activity at 10 µM: 96.4%
[2]; AKBA 10 μM
  Experiment 1 Fold change: 3.4 Fold change
  Experiment 2 Fold change: 2.8 Fold change
  Experiment 3 Fold change: 2.4 Fold change
[2]; AKBA 10 μM, positive allosteric activity, fold change data
  Conclusions: Is CB1R antagonist effect observed?: Negative (Only treatments that the mean of three consecutive independent experiments show a positive result (CB1R activity ≥ 4-fold change) are considered positive CB1R allosteric agonists)
[2]; AKBA 25 μM, % of activity data
  Conclusions: Is CB1R antagonist effect observed?: Allosterism (increase of the CB1R activity percentage (>150%) induced by CP55940)
[2]; AKBA 25 μM, read-out: Experiment 1 % of activity
  activity at 25 µM: 203%
[2]; AKBA 25 μM, read-out: Experiment 2 % of activity
  activity at 25 µM: 158%
[2]; AKBA 25 μM, read-out: Experiment 3 % of activity
  activity at 25 µM: 128%
[2]; AKBA 25 μM
  Experiment 1 Fold change: 5.1 Fold change
  Experiment 2 Fold change: 3.9 Fold change
  Experiment 3 Fold change: 3.2 Fold change
[2]; AKBA 25 μM, positive allosteric activity, fold change data
  Conclusions: Is CB1R antagonist effect observed?: Allosterism (An increase of the fold change ≥ 4-fold indicates CB1R positive allosteric agonistic activity)
[2]; AKBA 50 μM, % of activity data
  Conclusions: Is CB1R antagonist effect observed?: Allosterism (increase of the CB1R activity percentage (>150%) induced by CP55940)
[2]; AKBA 50 μM, read-out: Experiment 1 % of activity
  activity at 50 µM: 500%
[2]; AKBA 50 μM, read-out: Experiment 2 % of activity
  activity at 50 µM: 537%
[2]; AKBA 50 μM, read-out: Experiment 3 % of activity
  activity at 50 µM: 474%
[2]; AKBA 50 μM
  Experiment 1 Fold change: 12.5 Fold change
  Experiment 2 Fold change: 13.4 Fold change
  Experiment 3 Fold change: 11.9 Fold change
[2]; AKBA 50 μM, positive allosteric activity, fold change data
  Conclusions: Is CB1R antagonist effect observed?: Allosterism (An increase of the fold change ≥ 4-fold indicates CB1R positive allosteric agonistic activity)
[2]; AKBA 100 μM, % of activity data
  Conclusions: Is CB1R antagonist effect observed?: Allosterism (increase of the CB1R activity percentage (>150%) induced by CP55940)
[2]; AKBA 100 μM, read-out: Experiment 2 % of activity
  activity at 100 µM: 674%
[2]; AKBA 100 μM, read-out: Experiment 3 % of activity
  activity at 100 µM: 485%
[2]; AKBA 100 μM
  Experiment 1 Fold change: 25.6 Fold change
  Experiment 2 Fold change: 16.8 Fold change
  Experiment 3 Fold change: 12.1 Fold change
[2]; AKBA 100 μM, positive allosteric activity, fold change data
  Conclusions: Is CB1R antagonist effect observed?: Allosterism (An increase of the fold change ≥ 4-fold indicates CB1R positive allosteric agonistic activity)
[2]; AKBA 5-100 μM, CP55940-stimulated cells
  CB1R antagonistic effect: did not show an antagonistic effect
